According to patent US20200254241A1, “ELECTRICAL METHOD OF DELIVERING HYALURONIC ACID THROUGH THE SKIN” (priority 2017, published 2020):

Experiments:
[1] = In vitro skin deposition of FL-HA (120 kDa) in Franz diffusion cells, fluorimetry; format: in vitro ADME, porcine
Excerpt: The effect of electroporation parameters on skin integrity and transport of hyaluronic acid (at 1% by weight in water) 120 kDa (HA) labeled with fluorescein into the permeabilzed skin was investigated in vitro using electroporation vs. its passive diffusion.
ii) porating mode (100-250 V, shorter pulse lengths and low number of pulses). Franz-diffusion cells were used to evaluate the in vitro delivery.
Porcine ear skin was used for the in vitro studies. It is accepted as a good model for the human skin barrier. Hairs were excised from the skin surface using clippers. The skin was “sliced” so as to obtain samples with an average thickness of 1.5 mm for all samples. Skin was frozen (−20° C.) or stored at 4° C. until use.
The FL-HA was quantified using by fluorimetry. The measurements were performed using a microplate reader. The excitation and emission wavelengths were 494 and 514 nm. The gain was adjusted to 80 in order to obtain better sensitivity of the samples. All samples were put in polystyrene 96-well plates and protected from the light until analysis. Furthermore, a calibration curve was included in every plate.
The aim of the experiments was to quantify penetration of FL-HA (120 kDa) into intact, electroporated porcine ear skin with and without iontophoresis) as a function of duration using the optimal treatment conditions identified in the previous part of the study. Electroporation treatment was performed either as (i) pre-treatment, where electroporation was performed before formulation application, or as (ii) co-treatment, where the elcetroporation treatment was performed simultaneou.sly in the presence of the formulation. All conditions were tested for 10 and 20 min.
3. Condition 9 (Voltage 250 V, Pulse length 15 ms, Pulse interval 50 ms and 9 Pulses), pre-treatment with electroporation
4. Condition 9 (Voltage 250 V, Pulse length 15 ms, Pulse interval 50 ms and 9 Pulses), simultaneous treatment with electroporation and formulation
7. Control: Application of an aqueous solution of FL-HA (120 kDa) formula on (1% w/w) to “untreated” skin. […]

[2] = Skin images (confocal microscopy) for skin damage after the electrical treatment; design: species or system porcine; settings: for skin damage in skin images: electroporation condition 9 plus iontophoresis
Description: The combination of such parameters with iontophoresis at 0.2 mA/cm^2 for 20 min has also been corroborated (x 12 vs. passive diffusion).
9. Take photos to make a visual record of skin condition.
The skin images obtained provide more information about the possible skin damage produced by the electroporation treatment.

- skin deposition, electroporation plus iontophoresis (CT+I) compared with electroporation alone (CT) ([1]; condition 9, iontophoresis 0.2 mA/cm^2 for 20 min, p<0.05, ANOVA, Student Newman Keuls test): statistically superior
- skin deposition, electroporation plus iontophoresis (CT+I) compared with electroporation alone (CT) ([1]; condition 9, iontophoresis 0.2 mA/cm^2 up to 10 min): not increasing the deposition
- increase in skin deposition vs. passive diffusion ([1]; electroporation combined with iontophoresis at 0.2 mA/cm^2 for 20 min): 12 x
Substance: hyaluronic acid [HA 120 kDa]
- visual damage to the membrane (skin) ([2]; electroporation alone, 250 V, pulse length 15 ms, pulse interval 50 ms, <10 pulses): no visual damage
- skin damage in skin images [2]: lack of significant damage to the skin
- skin damage in skin images ([2]; listed as 120 kDa FL-HA formulation): no damage was observed
